The target in test [1] is Genome polyprotein (dengue virus type 2, UniProt P29990). As to the kind of experiment: Dengue-2 NS5 methyltransferase inhibitors, primary screen, biochemical, confirmation dose response (AID 588689). It is filed as functional.
The target of test [2] is T1, 1-phosphatidylinositol 4,5-bisphosphate phosphodiesterase gamma-1 (Homo sapiens, UniProt P19174).
T1 sequence (P19174 whole entry): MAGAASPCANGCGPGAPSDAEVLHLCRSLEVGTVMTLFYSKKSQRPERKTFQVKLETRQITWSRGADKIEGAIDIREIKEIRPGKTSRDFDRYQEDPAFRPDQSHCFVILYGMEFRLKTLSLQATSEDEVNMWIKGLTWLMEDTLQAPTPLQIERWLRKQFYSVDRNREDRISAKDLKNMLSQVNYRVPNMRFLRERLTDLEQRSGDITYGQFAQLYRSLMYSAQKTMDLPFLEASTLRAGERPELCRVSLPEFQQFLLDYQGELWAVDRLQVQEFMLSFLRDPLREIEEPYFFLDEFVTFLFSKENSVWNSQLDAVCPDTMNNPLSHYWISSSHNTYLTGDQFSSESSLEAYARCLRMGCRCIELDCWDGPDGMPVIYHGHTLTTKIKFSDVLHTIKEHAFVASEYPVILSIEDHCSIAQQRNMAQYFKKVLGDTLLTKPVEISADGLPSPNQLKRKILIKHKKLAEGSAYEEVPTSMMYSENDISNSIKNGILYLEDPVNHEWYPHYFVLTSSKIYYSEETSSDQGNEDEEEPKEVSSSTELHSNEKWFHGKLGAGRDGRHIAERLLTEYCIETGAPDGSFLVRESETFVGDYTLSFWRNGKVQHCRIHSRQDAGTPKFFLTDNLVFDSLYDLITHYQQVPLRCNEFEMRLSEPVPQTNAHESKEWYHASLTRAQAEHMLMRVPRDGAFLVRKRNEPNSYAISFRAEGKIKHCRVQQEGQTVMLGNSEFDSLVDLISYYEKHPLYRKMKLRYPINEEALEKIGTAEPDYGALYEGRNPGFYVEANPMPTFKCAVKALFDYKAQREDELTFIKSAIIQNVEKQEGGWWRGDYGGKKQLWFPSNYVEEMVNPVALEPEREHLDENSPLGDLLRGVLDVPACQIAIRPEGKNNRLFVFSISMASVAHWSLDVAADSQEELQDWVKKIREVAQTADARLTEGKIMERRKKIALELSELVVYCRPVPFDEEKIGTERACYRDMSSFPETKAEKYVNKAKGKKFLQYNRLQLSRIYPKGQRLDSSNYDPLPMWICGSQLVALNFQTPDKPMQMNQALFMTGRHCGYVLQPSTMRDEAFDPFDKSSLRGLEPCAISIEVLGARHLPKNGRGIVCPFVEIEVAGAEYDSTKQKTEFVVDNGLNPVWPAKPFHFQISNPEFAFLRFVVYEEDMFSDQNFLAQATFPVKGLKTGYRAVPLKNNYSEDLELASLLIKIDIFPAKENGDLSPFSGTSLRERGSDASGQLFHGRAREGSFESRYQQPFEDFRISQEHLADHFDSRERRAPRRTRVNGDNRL
The experiment in a line: Counterscreen for inhibitors of phospholipase C isozymes (PLC-B3): Fluorescence-based biochemical high throughput dose response assay to identify inhibitors of phospholipase C isozymes (PLC-gamma1). (In general: The purpose of a counterscreen is to sort out artefacts and off-target activity.)

The target in test [3] is T2, 1-phosphatidylinositol 4,5-bisphosphate phosphodiesterase beta-3 (Homo sapiens, UniProt Q01970).
T2 sequence (Q01970 whole entry): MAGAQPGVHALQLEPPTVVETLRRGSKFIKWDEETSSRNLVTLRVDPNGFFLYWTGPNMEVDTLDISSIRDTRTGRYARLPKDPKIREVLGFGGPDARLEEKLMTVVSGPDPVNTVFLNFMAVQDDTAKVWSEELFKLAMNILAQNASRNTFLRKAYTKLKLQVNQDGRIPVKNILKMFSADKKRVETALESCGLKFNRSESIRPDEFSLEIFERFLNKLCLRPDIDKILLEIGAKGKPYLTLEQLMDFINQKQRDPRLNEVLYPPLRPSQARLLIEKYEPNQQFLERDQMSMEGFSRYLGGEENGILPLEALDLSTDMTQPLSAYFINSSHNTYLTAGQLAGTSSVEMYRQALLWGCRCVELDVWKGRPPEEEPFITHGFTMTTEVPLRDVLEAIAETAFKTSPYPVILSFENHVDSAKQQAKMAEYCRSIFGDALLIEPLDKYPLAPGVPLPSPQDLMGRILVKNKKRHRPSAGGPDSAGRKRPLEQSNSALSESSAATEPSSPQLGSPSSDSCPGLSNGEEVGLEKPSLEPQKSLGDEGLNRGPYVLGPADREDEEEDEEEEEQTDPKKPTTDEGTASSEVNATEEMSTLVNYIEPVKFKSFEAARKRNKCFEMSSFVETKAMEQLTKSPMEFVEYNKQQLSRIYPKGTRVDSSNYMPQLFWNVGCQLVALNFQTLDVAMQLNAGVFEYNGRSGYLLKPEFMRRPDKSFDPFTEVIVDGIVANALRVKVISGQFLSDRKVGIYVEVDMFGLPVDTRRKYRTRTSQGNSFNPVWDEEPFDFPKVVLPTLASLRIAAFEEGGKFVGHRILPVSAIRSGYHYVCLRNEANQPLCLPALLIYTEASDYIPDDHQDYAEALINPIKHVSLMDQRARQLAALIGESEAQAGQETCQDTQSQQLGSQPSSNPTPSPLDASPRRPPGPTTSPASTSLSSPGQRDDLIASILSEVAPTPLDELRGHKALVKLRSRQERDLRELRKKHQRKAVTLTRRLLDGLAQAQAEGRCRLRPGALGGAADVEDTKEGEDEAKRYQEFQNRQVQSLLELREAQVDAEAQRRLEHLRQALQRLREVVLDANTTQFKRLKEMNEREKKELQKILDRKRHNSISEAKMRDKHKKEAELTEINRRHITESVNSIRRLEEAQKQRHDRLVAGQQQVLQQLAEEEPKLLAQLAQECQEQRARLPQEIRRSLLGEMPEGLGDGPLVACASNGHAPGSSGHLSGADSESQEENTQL
The experiment in a line: Fluorescence-based biochemical high throughput dose response assay to identify inhibitors of phospholipase C isozymes (PLC-B3).

In test [4] the target is T3, Bcl-2-related protein A1 (Mus musculus, UniProt Q07440).
T3 sequence (Q07440 whole entry): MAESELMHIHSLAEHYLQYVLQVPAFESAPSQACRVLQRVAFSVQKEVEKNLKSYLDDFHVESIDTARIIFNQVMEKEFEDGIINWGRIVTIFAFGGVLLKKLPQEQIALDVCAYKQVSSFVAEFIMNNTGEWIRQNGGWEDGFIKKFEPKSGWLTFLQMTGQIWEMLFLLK
As to the kind of experiment: Bfl-1 binding inhibitors, SAR follow-up, biochemical, fluorescence polarization (AID 1070).

Test [5] deals with T3, Bcl-2-related protein A1. As to the kind of experiment: Bfl-1 inhibitors blocking BH3 peptide binding, confirmation, biochemical, TR-FRET, mouse Bfl-1 (AID 621). (In general: In TR-FRET formats the signal depends on donor and acceptor labels being close together.)
In test [6] the target is Glyceraldehyde-3-phosphate dehydrogenase (Homo sapiens, UniProt P04406).
Test [7] concerns the target T4, Oxysterols receptor LXR-beta (Homo sapiens, UniProt P55055).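 Further: agonist activity at LXR measured by a cell-based luminescence readout across a dose range, run as a counterscreen for daf-12 agonists; HEK293 cells with Gal4-LXR fusion and GAL4-driven luciferase reporter; potency for activation of Gal4-LXR reporter so compounds are agonists.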
T4 sequence (P55055 whole entry): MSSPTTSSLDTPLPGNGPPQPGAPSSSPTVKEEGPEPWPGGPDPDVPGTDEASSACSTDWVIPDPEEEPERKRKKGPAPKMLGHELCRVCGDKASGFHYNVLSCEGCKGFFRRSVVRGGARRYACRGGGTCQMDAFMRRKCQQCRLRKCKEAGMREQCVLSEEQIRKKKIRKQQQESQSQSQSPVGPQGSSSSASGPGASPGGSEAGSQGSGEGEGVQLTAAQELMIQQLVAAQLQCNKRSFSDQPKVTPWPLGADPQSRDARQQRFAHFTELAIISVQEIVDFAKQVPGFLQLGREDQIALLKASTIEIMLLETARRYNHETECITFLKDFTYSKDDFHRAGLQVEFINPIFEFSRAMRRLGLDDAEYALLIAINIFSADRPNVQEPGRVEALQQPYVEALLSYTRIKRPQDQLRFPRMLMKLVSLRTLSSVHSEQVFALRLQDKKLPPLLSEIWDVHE
The format is functional, cell-based.

Test [8] concerns the target T5, Mannose-6-phosphate isomerase (Homo sapiens, UniProt P34949).
T5 sequence (P34949 whole entry): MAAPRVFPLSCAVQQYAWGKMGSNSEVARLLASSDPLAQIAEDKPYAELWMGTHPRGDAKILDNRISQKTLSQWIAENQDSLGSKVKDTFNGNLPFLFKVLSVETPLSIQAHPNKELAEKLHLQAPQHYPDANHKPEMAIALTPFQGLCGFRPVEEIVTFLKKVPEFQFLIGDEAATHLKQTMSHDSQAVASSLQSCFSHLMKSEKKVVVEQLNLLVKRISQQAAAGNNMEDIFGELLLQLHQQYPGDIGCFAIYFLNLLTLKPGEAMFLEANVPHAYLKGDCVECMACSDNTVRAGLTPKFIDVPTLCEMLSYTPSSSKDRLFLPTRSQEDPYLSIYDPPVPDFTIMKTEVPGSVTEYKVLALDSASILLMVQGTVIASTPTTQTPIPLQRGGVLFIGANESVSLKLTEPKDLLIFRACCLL
As to the kind of experiment: human PMI inhibitors, high substrate, primary screen, biochemical, fluorescence intensity, high mannose 6-phosphate (AID 1220).

In test [9] the target is Eukaryotic translation initiation factor 4E (Mus musculus, UniProt P63073). The experiment in a line: eIF4E–eIF4G protein interaction inhibitors, dose response, biochemical, TR-FRET (AID 855).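 Further: potency for disrupting eIF4E binding to eIF4GI seen as loss of FRET.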 It is filed as functional.
The target of test [10] is T6, fMet-Leu-Phe receptor (Homo sapiens, UniProt P21462).
T6 sequence (P21462 whole entry): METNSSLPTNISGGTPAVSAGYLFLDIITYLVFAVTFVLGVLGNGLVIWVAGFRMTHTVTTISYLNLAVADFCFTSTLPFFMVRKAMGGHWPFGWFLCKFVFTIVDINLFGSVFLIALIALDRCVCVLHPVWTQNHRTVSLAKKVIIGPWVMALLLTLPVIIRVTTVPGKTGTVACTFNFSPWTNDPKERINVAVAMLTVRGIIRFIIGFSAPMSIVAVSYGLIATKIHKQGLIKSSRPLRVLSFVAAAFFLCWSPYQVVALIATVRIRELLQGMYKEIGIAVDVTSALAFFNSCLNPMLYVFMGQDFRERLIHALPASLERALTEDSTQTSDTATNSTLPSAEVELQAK
As to the kind of experiment: FPR ligands, dose response (AID 519). The format is functional.

Test [11] can be described thus: NIH:OVCAR-3 ovarian cancer cell cytotoxicity, dose response, PAX8 inhibitor project, plate reader, dry powder samples (AID 743044). It is filed as functional, cell-based.
Test [12] is described as follows: cytotoxicity in OVCAR8 ovarian cancer cells, dose response, PAX8 project, cell-based, plate reader, dry powder samples (AID 743197). It is filed as functional. The conditions noted are these: OVCAR-8.
Test [13] concerns the target Paired box protein Pax-8 (Homo sapiens, UniProt Q06710). As to the kind of experiment: inhibitors of PAX8-driven TPO luciferase reporter, dose response, RMG-I cells, cherry-pick (AID 687027).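 Further: luciferase reporter driven by Pax8 target thyroperoxidase promoter measured by SteadyGlo luminescence.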 It is filed as functional, cell-based.
Test [14] is described as follows: IGROV1 ovarian cancer cell cytotoxicity, dose response, PAX8 inhibitor project, plate reader, dry powder samples (AID 743043). The format is functional, cell-based. The conditions noted are these: IGROV-1.

The source made the active and inactive calls.

Chain of Paired box protein Pax-8 (Q06710 whole entry): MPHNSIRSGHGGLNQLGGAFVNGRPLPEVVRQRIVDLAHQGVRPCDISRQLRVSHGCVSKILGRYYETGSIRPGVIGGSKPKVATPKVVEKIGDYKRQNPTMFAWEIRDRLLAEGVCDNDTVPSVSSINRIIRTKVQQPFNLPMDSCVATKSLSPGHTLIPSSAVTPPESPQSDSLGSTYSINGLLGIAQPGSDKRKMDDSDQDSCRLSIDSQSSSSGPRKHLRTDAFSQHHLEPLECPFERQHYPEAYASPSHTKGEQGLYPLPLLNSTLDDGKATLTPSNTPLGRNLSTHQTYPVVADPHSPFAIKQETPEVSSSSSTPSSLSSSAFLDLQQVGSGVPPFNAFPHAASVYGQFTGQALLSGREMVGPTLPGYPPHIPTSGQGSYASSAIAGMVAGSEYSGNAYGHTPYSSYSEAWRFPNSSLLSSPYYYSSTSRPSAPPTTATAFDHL
Chain of Genome polyprotein (P29990 2492-3391 limits assumed): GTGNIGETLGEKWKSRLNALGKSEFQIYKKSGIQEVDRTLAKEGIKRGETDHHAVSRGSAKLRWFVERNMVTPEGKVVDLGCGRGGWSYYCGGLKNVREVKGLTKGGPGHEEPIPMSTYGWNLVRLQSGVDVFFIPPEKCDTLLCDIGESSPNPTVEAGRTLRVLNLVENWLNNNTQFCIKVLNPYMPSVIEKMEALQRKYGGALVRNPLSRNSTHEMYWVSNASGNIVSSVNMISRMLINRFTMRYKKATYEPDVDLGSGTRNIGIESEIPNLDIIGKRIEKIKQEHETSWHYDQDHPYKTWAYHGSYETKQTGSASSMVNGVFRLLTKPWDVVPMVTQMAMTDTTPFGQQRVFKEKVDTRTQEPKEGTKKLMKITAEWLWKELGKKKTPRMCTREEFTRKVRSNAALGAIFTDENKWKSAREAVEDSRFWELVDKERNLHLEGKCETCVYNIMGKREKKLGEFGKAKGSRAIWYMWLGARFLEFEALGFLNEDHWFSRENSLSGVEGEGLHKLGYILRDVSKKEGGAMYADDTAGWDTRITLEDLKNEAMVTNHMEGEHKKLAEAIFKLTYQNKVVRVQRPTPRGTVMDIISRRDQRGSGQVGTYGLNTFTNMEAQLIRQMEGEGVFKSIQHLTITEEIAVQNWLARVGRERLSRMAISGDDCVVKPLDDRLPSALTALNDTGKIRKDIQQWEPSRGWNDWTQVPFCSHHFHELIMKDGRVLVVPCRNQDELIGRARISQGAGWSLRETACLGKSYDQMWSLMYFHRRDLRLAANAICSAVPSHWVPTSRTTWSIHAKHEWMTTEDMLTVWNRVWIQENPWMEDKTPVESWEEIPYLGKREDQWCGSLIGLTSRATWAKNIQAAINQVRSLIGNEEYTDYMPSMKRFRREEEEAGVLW
Chain of Glyceraldehyde-3-phosphate dehydrogenase (P04406 whole entry, the tested form may be a part): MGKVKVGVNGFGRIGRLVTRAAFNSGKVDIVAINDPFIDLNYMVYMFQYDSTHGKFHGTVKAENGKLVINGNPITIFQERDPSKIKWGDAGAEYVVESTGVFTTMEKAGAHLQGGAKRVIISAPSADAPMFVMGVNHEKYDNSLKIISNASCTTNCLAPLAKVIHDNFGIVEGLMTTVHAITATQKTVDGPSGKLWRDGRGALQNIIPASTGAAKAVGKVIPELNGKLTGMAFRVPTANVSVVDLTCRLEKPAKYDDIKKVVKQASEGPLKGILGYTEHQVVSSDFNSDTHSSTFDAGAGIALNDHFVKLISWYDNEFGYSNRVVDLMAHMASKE
Chain of Eukaryotic translation initiation factor 4E (P63073 whole entry): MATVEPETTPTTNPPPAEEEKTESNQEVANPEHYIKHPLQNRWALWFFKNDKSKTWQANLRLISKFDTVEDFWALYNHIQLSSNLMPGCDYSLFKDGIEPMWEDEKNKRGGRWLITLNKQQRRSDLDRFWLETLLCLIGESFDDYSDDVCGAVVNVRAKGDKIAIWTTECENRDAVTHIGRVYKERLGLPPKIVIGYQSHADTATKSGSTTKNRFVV

For `COc1cc(Cl)cc(C(c2c(C(=O)O)[nH]c3ccccc23)c2c(C(=O)O)[nH]c3ccccc23)c1O`, the half-maximal inhibitory concentration (IC50) (usually the point on the concentration scale where inhibition reaches its midpoint) was 16.9 µM (active) in test [1], 54 µM (inactive) in test [2] and > 122 µM (inactive) in test [3].

Regarding `O=C1C(Cl)=C(N2CCN(CCNCc3ccccn3)CC2)C(=O)N1c1ccc(Cl)c(Cl)c1`, the IC50 in test [4] was 16.3 µM (active); in test [5], 8.14 µM (active); in [6], > 100 µM (not active).

For the molecule `Cc1ccc(C(=N)NOC(=O)c2ccco2)cc1`, the EC50 (as a rule, the concentration at which the effect is half-maximal) in [7] is > 67.5 µM (inactive).

With `CSc1nc(N)c(C(=O)NC2CCCCC2)s1`, the IC50 in test [2] and in [3] was > 123 µM (inactive) each time.

Turning to `CCc1cccc(NC(=O)CN(c2ccc(OC)cc2)S(=O)(=O)c2c(C)n[nH]c2C)c1`, the IC50 in test [2] and in [3] was > 123 µM (inactive) in each case.

Turning to `c1ccc2[nH]c(SN3CCOCC3)nc2c1`, the IC50 in test [8] was > 50 µM (not active); in test [9] it was 27.5 µM (active).

For `CC1=C(C(=O)OC(C)C)[C@]2(C(=O)N(CC(N)=O)c3ccccc32)C(C#N)=C(N)O1`, in test [10], the Ki – broadly, the dissociation constant of the complex between target and ligand, obtained from inhibition or displacement – was > 66.7 µM (inactive).

As to `CCOC(=O)c1cc(NC(=O)C2C3CCC(O3)C2C(=O)O)cc(C(=O)OCC)c1` (stereo unspecified), the Ki in test [10] was > 66.7 µM (inactive).

With `COc1ccc(-c2cc(C(F)(F)F)nc(N3CCN(Cc4ccccc4)CC3)n2)cc1OC`, in [10], the Ki is > 66.7 µM (inactive).

As to `Cc1nn(-c2nnc(NC3CCCCC3)nn2)c(C)c1Br`, the EC50 in test [7] is > 67.6 µM (inactive).

Take `Cc1ccc(C23CC4CC(CC(C(=O)NCC(=O)O)(C4)C2)C3)cc1`: the IC50 in test [2] and in test [3] was > 122 µM (inactive) throughout.

With `Fc1ccccc1CSc1ncnc2c1ncn2C1CCCCO1` (stereo unspecified), in test [7], the EC50 is > 67.6 µM (inactive).

Regarding `C[C@@H]1CCCCO[C@@H](CN(C)Cc2ccncc2)[C@H](C)CN([C@@H](C)CO)C(=O)c2cc(NC(=O)Nc3ccc(C(F)(F)F)cc3)ccc2O1`, the results for the AC50 in test [11], in test [12] and in test [13] were 35.8 µM (active), > 70 µM (inactive) and 5.52 µM (active), respectively.

Regarding `C[C@@H]1CN([C@H](C)CO)C(=O)c2cc(NS(=O)(=O)c3ccc(Cl)cc3)ccc2O[C@@H](C)CCCCO[C@H]1CN(C)Cc1ccc2c(c1)OCO2`, the AC50 – broadly, the midpoint of the concentration-response curve, whichever way the signal moves – was 17.5 µM (active) in test [11], 49.9 µM (active) in test [14], 51.2 µM (active) in test [12] and 10.2 µM (active) in [13].

Regarding `C[C@@H]1CCCCO[C@@H](CN(C)Cc2ccc(C(F)(F)F)cc2)[C@H](C)CN([C@@H](C)CO)C(=O)c2cc(NC(=O)Cc3ccccc3)ccc2O1`, the concentration at half-maximal activity (AC50) in [11] is 19.8 µM (active); in test [14], 25.7 µM (active); in [12], 33.3 µM (active); in test [13], 7.16 µM (active).
